# Measured values reported in patent US20240358692A1, “TREATMENT OF SCLERODERMA” (Aisa Pharma, Inc., priority 2023, published 2024).
# Test system: participants with SSc-RP
# Assay: SHAQ - Visual Analog Scale - Raynaud's
# Assay type: in vivo, human
# Excerpt: The SHAQ includes a Raynaud's VAS, which will be reported at screening and each in-clinic visit. The absolute change in Raynaud-VAS, assessed by the participants response to the SHAQ question ‘In the past 7 days, how much have your Raynaud's interfered with your daily activities?’ at baseline and the end of each dosing period will be calculated similar to frequency data as before.
# The standard, validated, patient reported outcome measures tool for SSc patients, the SHAQ, was collected at the time points specified in the study schedules (FIG. 2 and FIGS. 4A and 4B) to assess the participant's quality of life. The SHAQ included a Raynaud's VAS that will also be reported separately.
compound,measurement,setting,value
CN1CC(=O)N2[C@H](c3ccc4c(c3)OCO4)c3[nH]c4ccccc4c3C[C@@H]2C1=O [Tadalafil],"SHAQ Visual Analogue Scale - Raynaud's, Change from Baseline, Median","Tadalafil 5 mg (N = 5), Day 12, PP Population, Part A",−0.500
same,VAS Raynaud's Change from Baseline Max,tadalafil 5 mg,−0.10
same,VAS Raynaud's Change from Baseline Mean,tadalafil 5 mg,−0.825
same,VAS Raynaud's Change from Baseline Median,tadalafil 5 mg,−0.500
same,VAS Raynaud's Change from Baseline Min,tadalafil 5 mg,−2.20
same,VAS Raynaud's Change from Baseline Q1,tadalafil 5 mg,−1.500
same,VAS Raynaud's Change from Baseline Q3,tadalafil 5 mg,−0.150
same,VAS Raynaud's Day 12 Max,tadalafil 5 mg,9.20
same,VAS Raynaud's Day 12 Median,tadalafil 5 mg,5.200
same,VAS Raynaud's Day 12 Min,tadalafil 5 mg,0.20
same,VAS Raynaud's Day 12 Q1,tadalafil 5 mg,2.200
same,VAS Raynaud's Day 12 Q3,tadalafil 5 mg,7.700
same,VAS Raynaud's Percent Change from Baseline Max,tadalafil 5 mg,−3.1%
same,VAS Raynaud's Percent Change from Baseline Mean,tadalafil 5 mg,−19.71%
same,VAS Raynaud's Percent Change from Baseline Median,tadalafil 5 mg,−20.67%
same,VAS Raynaud's Percent Change from Baseline Min,tadalafil 5 mg,−34.4%
same,VAS Raynaud's Percent Change from Baseline Q1,tadalafil 5 mg,−33.85%
same,VAS Raynaud's Percent Change from Baseline Q3,tadalafil 5 mg,−5.56%
